Data reported in article PMC3912015, “Synthetic Multivalent Antifungal Peptides Effective against Fungi” (PLoS ONE, 2014).
Converted amounts (≈) assume the structure as drawn. Read-outs that look alike come from different tables or passages of the source. Bridge positions count the residues as written; N and C are the ends. Ends that are not written are not given here. Peptide text beside a SMILES is read from it. I, II: the chains in the order shown.

Legend:
[1] = tested on: C. albicans ATCC24433; assay: microbe, parasite or virus in culture; format: cell-based; settings: ATCC24433, 48 h
Method: (§1) The yeast strains were cultivated and suspended in Sabouraud’s Dextrose (SD) broth diluted to one sixth at a starting OD600 = ∼0.08 in a flat-bottomed microtitre plate. A serial dilution of peptide in the same broth was mixed with the inoculum to give a final peptide concentration of 0.4–22 µM. The antifungal activity was assessed by monitoring the OD600 in cycles of 30 minutes and an orbital shaking at 100 rpm using an Infinite M200 microplate reader (Tecan Group Ltd., Switzerland) for 24/48 h at 37°C. Cultures without peptides were used as positive controls and broth alone or with 22 µM peptide served as negative controls. The minimum concentration required for complete inhibition was assessed by both visible observations as well as by measuring the OD600 and taken as the MIC. Each experiment was repeated in triplicates. For studying the effects of metal ions, SD broth was adjusted with appropriate concentrations of salts to yield a final concentration of 100 and 135 mM for NaCl and KCl and 0.5–2 mM for CaCl2 and MgCl2. MIC determinations were carried out as described above. C. albicans ATCC10231 cells and salts in broth were taken as a positive control. Salts alone (NaCl, KCl, and CaCl2 and MgCl2) in broth or with 22 µM peptide served as a negative control. The effect of 5% human serum on the activities of B4010 against two C. albicans clinical isolates was determined. The human male serum was centrifuged at 13,000 rpm for 10 mins in order to remove the lipids and the supernatant was collected. The MIC values against clinical isolates of C. albicans 2672R and C. albicans 1976R were determined both in standard medium (SD broth) as well as in standard medium containing 5% serum supernatant as before.

[2] = tested on: C. albicans DF1976R; assay: microbe, parasite or virus in culture; format: cell-based; settings: DF1976R, 48 h
Method: as §1

[3] = tested on: C. albicans DF2672R; assay: microbe, parasite or virus in culture; format: cell-based; settings: DF2672R, 48 h
Method: as §1

[4] = tested on: C. albicans ATCC2091; assay: microbe, parasite or virus in culture; format: cell-based; settings: ATCC2091, 48 h
Method: as §1

[5] = tested on: C. albicans ATCC10231; assay: microbe, parasite or virus in culture; format: cell-based; settings: ATCC10231, 48 h
Method: as §1

[6] = format: biochemical
Method: Small unilamellar vesicles (SUVs) were prepared using PC/PE/PI or PS lipids (5∶2.5∶2.5) containing 15 wt% ergosterol or PC/Cholesterol (10∶1). For the preparation of PC/PE/PI or PS/Erg SUV, the lipids were dissolved in chloroform/methanol (2∶1, v/v) in a glass tube. Ergosterol was dissolved in same solvent and added to lipid mixture to make final ergosterol content of 15 wt%. The Lipid-ergosterol mixture was dried using nitrogen gas to form lipid layer. The film was hydrated in a buffer containing 20 mM PBS (pH 7), vortexed and sonicated. Each cycle of sonication (5 sec, 40°C) was followed by freezing in liquid nitrogen and thawing on a water bath kept at 37°C. The procedure was repeated 5–6 times until an optically clear dispersion appeared. The SUV was divided into two parts. To the first part 50 mM calcein was added and incubated for 1 h. The excess calcein was removed by injecting 100 µL of the calcien-loaded SUV’s into a Ultrahydrogel™ 250 (7.8 mm × 300 mm) column equilibrated with 20 mM PBS (pH 7.0) and eluted isochratically at a flow rate of 1 mL/min for 1.5 column volumes. The calcein-loaded liposomes were mixed with calcein-free liposome (1∶1) to adjust final liposome concentration. Peptide concentration was added to obtain 1∶30 or 1∶15 peptide:liposome ratio. Changes in the fluorescence signal after addition of peptide or Triton X-100 was measured on a PTI spectrofluorometer, using an excitation wavelength of 480 nm and emission wavelength of 512 nm. The Percentage calcein released at each time point was calculated using the equation, [drawing 1]
Where A0 is the observed fluorescence intensity upon addition of peptides, Amin is the average intensity at the baseline (before peptide addition), Amax is the average intensity at the saturation phase after adding 1% Triton X-100. Similar protocol was followed for the preparation of PC/Cholesterol SUVs.

[7] = in vitro; format: cell-based, human; settings: human
Method: (§2) Immortalized normal human conjunctival epithelial cells (IOBANHC) were a gift from Yolanda Diebold at the University of Valladolid, Spain [31]. IOBA-NHC cells were cultured under standard conditions (humidified atmosphere of 5% CO2 at 37°C) in DMEM/F12 supplemented with 1 µg/ml bovine pancreas insulin, 2 ng/ml mouse epidermal growth factor, 0.1 µg/ml cholera toxin, 5 µg/ml hydrocortisone, 10% fetal bovine serum (FBS), 50 UI/ml penicillin, and 50 UI/ml streptomycin. Cells from passages 50–80 were used in all experiments. Every day, normal culture development was observed by phase-contrast microscopy. Cells were removed by gentle trypsin incubation at confluence and counted. They were seeded into 96 well culture plates (Corning, Schiphol-Rijk, The Netherlands) for microtitration analysis of flow cytotoxicity assay (∼10,000 cells/well). Cultures were kept at 37°C for 24 h. Subconfluent cells (culture surface covering nearly 70%) were then exposed to various peptide concentrations (0.22–225 µM). Cytotoxicity was measured periodically using MultiTox-Fluor Multiplex assay kit (Promega, WI, USA) by measuring the AFC fluorescence (λex = 485 and λem = 520 nm). We report the cell viability after 24 h incubation of the cells with the peptides since there was no detectable toxicity even after 8 h of incubation.

[8] = tested on: human conjunctival epithelial cells (IOBA-NHC); assay: in vitro; format: cell-based; settings: 24 h
Method: as §2

[9] = tested on: F. solani ATCC36031; assay: microbe, parasite or virus in culture; format: cell-based; settings: ATCC36031, 48 h
[10] = read-out: MIC in µM against Ca 24433
[11] = read-out: MIC in µM against Ca DF1976R
[12] = read-out: MIC in µM against Ca 2672R
[13] = read-out: MIC in µM against Ca 2091
[14] = read-out: MIC in µM against Ca 10231

Compound | MIC [1, 10] | MIC [2, 11] | MIC [3, 12] | MIC [4, 13] | MIC [5, 14] | % Calcein released from PC/PE/PS/Erg [6] | viability at 24 h, 237 µM [7] | EC50 [8] | MIC [9] | MIC ([1]; read-out: MIC) | MIC ([2]; read-out: MIC) | MIC ([3]; read-out: MIC) | MIC ([4]; read-out: MIC) | MIC ([5]; read-out: MIC) | calcein release relative to B4010 [6]
CC(C)[C@H](NC(=O)[C@H](CCCCN)NC(=O)[C@H](C)NC(=O)CNC(=O)[C@@H](N)CCCNC(=N)N)C(=O)N[C@H](C(=O)N[C@@H](CCCNC(=N)N)C(=O)N[C@@H](CCCNC(=N)N)C(=O)NCCCC[C@H](NC(=O)[C@H](CCCNC(=N)N)NC(=O)[C@H](CCCNC(=N)N)NC(=O)[C@@H](NC(=O)[C@@H](NC(=O)[C@H](CCCCN)NC(=O)[C@H](C)NC(=O)CNC(=O)[C@@H](N)CCCNC(=N)N)C(C)C)C(C)C)C(=O)NCCCC[C@H](NC(=O)[C@H](CCCCNC(=O)[C@H](CCCNC(=N)N)NC(=O)[C@H](CCCNC(=N)N)NC(=O)[C@@H](NC(=O)[C@@H](NC(=O)[C@H](CCCCN)NC(=O)[C@H](C)NC(=O)CNC(=O)[C@@H](N)CCCNC(=N)N)C(C)C)C(C)C)NC(=O)[C@H](CCCNC(=N)N)NC(=O)[C@H](CCCNC(=N)N)NC(=O)[C@@H](NC(=O)[C@@H](NC(=O)[C@H](CCCCN)NC(=O)[C@H](C)NC(=O)CNC(=O)[C@@H](N)CCCNC(=N)N)C(C)C)C(C)C)C(=O)N[C@@H](CCCCN)C(=O)O)C(C)C [B4010_R3A] (I: H-RGAKVVRRKKK-OH / II: H-RGAKVVRRK / III: H-RGAKVVRR / IV: H-RGAKVVRR; amide I:9-IV:C, I:10-II:C, II:9-III:C; N-terminus and C-terminus assumed) | 1.5 µM (≈ 6.33 µg/mL) | 0.4 µM (≈ 1.69 µg/mL) | 0.4 µM (≈ 1.69 µg/mL) | 1.5 µM (≈ 6.33 µg/mL) | 1.5 µM (≈ 6.33 µg/mL) | ~63% | 80.9% | > 237 µM | – | – | – | – | – | – | –
CC(C)[C@H](NC(=O)[C@H](CCCCN)NC(=O)[C@H](CCCNC(=N)N)NC(=O)CNC(=O)[C@@H](N)CCCNC(=N)N)C(=O)N[C@H](C(=O)N[C@@H](CCCNC(=N)N)C(=O)N[C@@H](CCCNC(=N)N)C(=O)NCCCC[C@H](NC(=O)[C@H](CCCNC(=N)N)NC(=O)[C@H](CCCNC(=N)N)NC(=O)[C@@H](NC(=O)[C@@H](NC(=O)[C@H](CCCCN)NC(=O)[C@H](CCCNC(=N)N)NC(=O)CNC(=O)[C@@H](N)CCCNC(=N)N)C(C)C)C(C)C)C(=O)N[C@@H](CCCCN)C(=O)O)C(C)C [B2088] (I: H-RGRKVVRRKK-OH / II: H-RGRKVVRR; amide I:9-II:C; N-terminus and C-terminus assumed) | – | – | – | – | – | – | – | – | 10.9 µM (≈ 25 µg/mL) | 2.7 µM (≈ 6.19 µg/mL) | 0.8 µM (≈ 1.83 µg/mL) | 0.8 µM (≈ 1.83 µg/mL) | 1.4 µM (≈ 3.21 µg/mL) | 5.5 µM (≈ 12.6 µg/mL) | decreased calcein release
CC(C)[C@H](N)C(=O)N[C@@H](CCCNC(=N)N)C(=O)NCC(=O)N[C@@H](CCCNC(=N)N)C(=O)N[C@H](C(=O)N[C@@H](CCCNC(=N)N)C(=O)N[C@@H](CCCCN)C(=O)N[C@@H](CCCNC(=N)N)C(=O)NCCCC[C@H](NC(=O)[C@H](CCCNC(=N)N)NC(=O)[C@H](CCCCN)NC(=O)[C@H](CCCNC(=N)N)NC(=O)[C@@H](NC(=O)[C@H](CCCNC(=N)N)NC(=O)CNC(=O)[C@H](CCCNC(=N)N)NC(=O)[C@@H](N)C(C)C)C(C)C)C(=O)NCCCC[C@H](NC(=O)[C@H](CCCCNC(=O)[C@H](CCCNC(=N)N)NC(=O)[C@H](CCCCN)NC(=O)[C@H](CCCNC(=N)N)NC(=O)[C@@H](NC(=O)[C@H](CCCNC(=N)N)NC(=O)CNC(=O)[C@H](CCCNC(=N)N)NC(=O)[C@@H](N)C(C)C)C(C)C)NC(=O)[C@H](CCCNC(=N)N)NC(=O)[C@H](CCCCN)NC(=O)[C@H](CCCNC(=N)N)NC(=O)[C@@H](NC(=O)[C@H](CCCNC(=N)N)NC(=O)CNC(=O)[C@H](CCCNC(=N)N)NC(=O)[C@@H](N)C(C)C)C(C)C)C(=O)N[C@@H](CCCCN)C(=O)O)C(C)C [Sc_B4010] (I: H-VRGRVRKRKKK-OH / II: H-VRGRVRKRK / III: H-VRGRVRKR / IV: H-VRGRVRKR; amide I:9-IV:C, I:10-II:C, II:9-III:C; N-terminus and C-terminus assumed) | – | – | – | – | – | – | – | – | – | 5.6 µM (≈ 25.6 µg/mL) | 0.8 µM (≈ 3.65 µg/mL) | 0.8 µM (≈ 3.65 µg/mL) | 2.7 µM (≈ 12.3 µg/mL) | 5.6 µM (≈ 25.6 µg/mL) | decreased calcein release
CC(C)[C@H](NC(=O)[C@H](CCCCN)NC(=O)[C@H](CCCNC(=N)N)NC(=O)CNC(=O)[C@H](C)N)C(=O)N[C@H](C(=O)N[C@@H](CCCNC(=N)N)C(=O)N[C@@H](CCCNC(=N)N)C(=O)NCCCC[C@H](NC(=O)[C@H](CCCNC(=N)N)NC(=O)[C@H](CCCNC(=N)N)NC(=O)[C@@H](NC(=O)[C@@H](NC(=O)[C@H](CCCCN)NC(=O)[C@H](CCCNC(=N)N)NC(=O)CNC(=O)[C@H](C)N)C(C)C)C(C)C)C(=O)NCCCC[C@H](NC(=O)[C@H](CCCCNC(=O)[C@H](CCCNC(=N)N)NC(=O)[C@H](CCCNC(=N)N)NC(=O)[C@@H](NC(=O)[C@@H](NC(=O)[C@H](CCCCN)NC(=O)[C@H](CCCNC(=N)N)NC(=O)CNC(=O)[C@H](C)N)C(C)C)C(C)C)NC(=O)[C@H](CCCNC(=N)N)NC(=O)[C@H](CCCNC(=N)N)NC(=O)[C@@H](NC(=O)[C@@H](NC(=O)[C@H](CCCCN)NC(=O)[C@H](CCCNC(=N)N)NC(=O)CNC(=O)[C@H](C)N)C(C)C)C(C)C)C(=O)N[C@@H](CCCCN)C(=O)O)C(C)C [B4010_R1A] (I: H-AGRKVVRRKKK-OH / II: H-AGRKVVRRK / III: H-AGRKVVRR / IV: H-AGRKVVRR; amide I:9-IV:C, I:10-II:C, II:9-III:C; N-terminus and C-terminus assumed) | 5.9 µM (≈ 24.9 µg/mL) | 0.75 µM (≈ 3.17 µg/mL) | 1.5 µM (≈ 6.33 µg/mL) | 1.5 µM (≈ 6.33 µg/mL) | 5.9 µM (≈ 24.9 µg/mL) | – | 67.6% | > 237 µM | – | – | – | – | – | – | –
RGRKVVRRKK [Monomer] | – | – | – | – | – | – | – | – | >78 µM | – | – | 78 µM | – | 78 µM | –
RGRKVVRRKKRRVVKRGR [Linear Retrodimer] | – | – | – | – | – | – | – | – | – | 5.5 µM | 2.7 µM | 2.7 µM | 11 µM | 22 µM | –
